The structures appear in SMILES notation.

One may read the melting point as the temperature, or range, at which the solid turns liquid. `CC(C)(C)c1ccn(-c2ccc(C(=O)N3Cc4cccnc4Nc4ccccc43)c(C(F)(F)F)c2)n1` displayed a melting point of 136 to 140 °C.

For `CNC(=O)c1ccccc1Nc1nc(Nc2ccc3c(c2)CCN(CC(F)(F)F)CC3)ncc1Cl`, the melting point is 177 to 190 °C.

Take `CC1(C)Oc2ccc(C#N)cc2C(OC(=O)C2CCCN2S(=O)(=O)c2ccc(Cl)cc2)C1Br` (stereo unspecified): the melting point fell in the range of 178 to 180 °C.

Consider `COc1cc(C(=O)O)cc2ccc(-c3ccc4c(c3)C(C)(C)CCC4(C)C)cc12`, for which the melting point stood at 242 °C.

Consider `CCOC(=O)COc1cc(-n2nc(C)c(Cl)c2C)c(F)cc1Cl`, for which the melting point is 101 to 104 °C.

On to `O=C(O)c1ccc(OCCCOc2ccccc2)cc1C(=O)O`, for which the melting point fell in the range of 155 to 159 °C.

On to `N#Cc1ccc(NC2CCCCC2)c([N+](=O)[O-])c1`, for which the melting point is 109 °C.

Compound `O=c1c(Br)cn(-c2cccc(C(F)(F)F)c2)nc1-c1ccnn1-c1ccccc1` registered a melting point of 145 to 146 °C.

Turning to `NCc1ccc2[nH]ccc2c1`, the melting point was 114 to 115 °C.

For the compound `O=C(c1ccc(Cl)c(Cl)c1)N(CCCCn1ccnc1)C1=Nc2cccc3cccc1c23`, the melting point was in the range of 138 to 141 °C.

In turn, `O=C(CCc1conc1-c1ccc(Cl)cc1)NCc1cccc(C(F)(F)F)c1` registered a melting point of 80 to 81 °C.

With `CC#Cc1ccc2[nH]c(C(=O)OCC)cc2c1`, the melting point lay in the range of 166 to 167 °C.

For `O=c1ccccn1[C@@H]1c2cc(C(F)(F)C(F)(F)C(F)(F)F)ccc2OC(CF)(CF)[C@H]1O` (relative stereo), the melting point was 111 to 113 °C.

`CCOC(=O)c1cc2cc(C#N)ccc2[nH]1`: the melting point fell in the range of 181 to 182 °C.

`CCCCOc1c(CNC(=O)OC(C)(C)C)n(CC(C)C)c(=O)c2ccc(-c3noc(=O)[nH]3)cc12` registered a melting point of 223 to 224 °C.

`Cn1cc(C(=O)O)c(=O)c2cc3cc(F)c(N4CCNC(c5ccccc5)C4)cc3nc21` (racemic) showed a melting point of 265 °C.

`O=C1C=C2CN(C(C(=O)C3CC3)c3ccccc3Cl)CCC2S1` (stereo unspecified) showed a melting point of 119 to 123 °C.

Take `C#CC(CC)(CC)NC(=O)C(CCN1CCN(c2ccccc2OC)CC1)c1ccccc1` (stereo unspecified): the melting point lay within 110 to 112 °C.

The compound `C#CC1(O)CCC2C3CCC4=CC(=O)CCC4C3C(=CF)CC21C` (stereo unspecified) returned a melting point of 188 to 190 °C.

`COc1ccc(OCC(O)CN2CCC(Nc3nc4ccccc4n3Cc3ccc(F)cc3)CC2)cc1` (stereo unspecified) showed a melting point of 174 °C.

`O=C1Nc2ccc(Cl)cc2C2(c3ccccc3)NCCCN12` (stereo unspecified) displayed a melting point of 275 to 276 °C.

Compound `COC(=O)c1ccc(C=C(C)[N+](=O)[O-])c(Cl)c1` displayed a melting point of 74 to 77 °C.

Consider `CC(C)(C)C(=O)Nc1cnc(C(=O)CO)cn1`, for which the melting point was 169 to 172 °C.

In turn, `CCOC(=O)C(=NNc1ccc([N+](=O)[O-])cc1)C(C)=O` yielded a melting point of 128 °C.

In turn, `COc1ccnc(-c2nc(=O)c3ccccc3s2)c1` came in with a melting point of 214 to 215 °C.

For the compound `CCSc1nc(O)nn1C(C)C`, the melting point is 109 to 114 °C.

`CCOC(Cc1ccc(OCC=C2c3ccccc3CCc3ccccc32)cc1)C(=O)O` (stereo unspecified) showed a melting point of 147 to 150 °C.

With `Cc1cccc(NC(=O)c2ccc(C(=O)N3Cc4ccccc4Cc4ccccc43)cc2)c1C`, the melting point fell in the range of 248 to 251 °C.

The compound `COc1ccc2c(c1)NCC(c1ccccc1)O2` (stereo unspecified) gave a melting point of 95 to 100 °C.

The compound `O=C(O)CN1C(=O)C(=Cc2ccc(OCCc3ccccc3)c(OCc3ccccc3)c2)SC1=S` gave a melting point of 198 to 201 °C.

In turn, `Cc1nc(N2CCN(Cc3ccc(C(F)(F)F)cc3)C2=O)sc1-c1ccno1` registered a melting point of 153 to 154 °C.

For `O=C(O)Cc1cccc2c(=O)cc(-c3ccccc3F)oc12`, the melting point is 179 to 181 °C.

The compound `COc1ccc(S(=O)(=O)N(CCC(=O)N2CCC(C(=O)O)CC2)C(CCc2ccccc2)C(=O)NO)cc1` (stereo unspecified) came in with a melting point of 85 to 92 °C.

With `O=C1c2cccc(F)c2-n2c1nc1ccccc1c2=O`, the melting point is 264 to 267 °C.

The compound `COC(=O)c1c(-c2ccc(F)cc2)ccc2ccccc12` showed a melting point of 113 to 114 °C.

For the compound `NNC(=O)CCc1csc(NC(N)=NCC(F)(F)F)n1`, the melting point was in the range of 125 to 126 °C.

For the compound `CCOc1cc(CC)ccc1C1CCN(CCCCNC(=O)c2ccc(NC(=O)c3ccc(Cl)cc3)cc2)CC1`, the melting point was found to be 250 °C.

The compound `CN1CC[C@@H](c2c(O)cc(O)c3c(=O)cc(-c4cc(Cl)ccc4Br)oc23)[C@@H]1CO` registered a melting point of 233 to 235 °C.

`C=CCNC(=O)ON=C1SCC(=O)N1CC` came in with a melting point of 103 to 104 °C.

`CCn1c(C(F)(F)F)nn(C2=CCC(F)(C(N)=S)C(N)=C2)c1=O` (stereo unspecified) had a melting point of 161 °C.

Take `CCCCc1nc2ccn(CC#N)c(=O)c2n1Cc1ccc(-c2ccccc2C#N)cc1`: the melting point worked out at 64 °C.

Take `CC(=O)Nc1ccn([C@@H]2[C@H](O)[C@H](O)CC[C@H]2OC(C)=O)c(=O)n1` (racemic): the melting point turned out to be 249 °C.

As for `Cc1cc(C)c(Nc2nc(C)ccc2S(=O)(=O)c2ccc(OCc3ccccc3)cc2)c(C)c1`, the melting point was 158 to 160 °C.

For `CC(=Cc1ccccc1)c1ccc2c(c1)C(C)(C)CCS2(=O)=O`, the melting point is 156 to 158 °C.

On to `Nc1ccccc1C=C1c2ccccc2CCc2ccccc21`, for which the melting point worked out at 145 °C.

On to `Cc1ccc2c(c1)CC(=S)N2`, for which the melting point was 120 to 122 °C.

Take `CN(c1ccc(O)cc1)c1cc2ccc(Cl)cc2c(O)n1`: the melting point was found to be 266 °C.

The compound `C=CC(=O)Nc1cccc2c(=O)c(C)c(-c3ccccc3)oc12` registered a melting point of 229 to 230 °C.

`Cc1ccc(C(=O)Nc2ccc(CN3CCN(C)CC3)cc2)cc1Nc1nccc(-c2cccnc2)n1` registered a melting point of 153 to 155 °C.

The compound `CCCCCC(C)C(C)c1cc(O)c2c(c1)OC(C)(C)C1=C2CN(CC(N)=O)CC1` (stereo unspecified) gave a melting point of 165 to 168 °C.

Regarding `COc1cc2nc(COc3ccc(CC4SC(=O)NC4=O)cc3)n(C)c(=O)c2cc1OC` (stereo unspecified), the melting point came to 252 °C.

On to `Cc1ccc(-c2c(C#N)n(C)c(=O)c3cnccc23)cc1`, for which the melting point was in the range of 201 to 202 °C.

`CCOC(=O)c1c2n(c3cc(Br)c(F)cc3c1=O)CCS2` yielded a melting point of 258 to 262 °C.

For the compound `O=C1OC(=O)c2cc3occc3c3cccc1c23`, the melting point was in the range of 160 to 165 °C.

Regarding `CCc1cn(C2CC(O)C(CCC(O)Cc3c(Cl)cccc3Cl)O2)c(=O)[nH]c1=O` (mixture of isomers), the melting point was in the range of 185 to 186 °C.

Take `N#CC(=CC(=O)c1ccccc1)C(=O)O`: the melting point was in the range of 74 to 75 °C.

As to `COC(=O)c1cc(C)c(-c2cccc(OCc3ccc(COC(=O)c4ccccc4)c(COC(=O)c4ccccc4)c3)c2C)c(C)c1`, the melting point lay in the range of 131 to 132 °C.

The compound `CS(=O)(=O)c1ccc(-c2nc(SCc3ccccc3)[nH]c2-c2ccc(F)cc2)cc1` showed a melting point of 155 to 156 °C.

Regarding `COC(=O)C1=C(CCc2cccs2)NC(CC(=O)N2CCN(C)CC2)=C(C(=O)OC)C1c1c(Cl)cccc1Cl` (stereo unspecified), the melting point fell in the range of 142 to 145 °C.

In the case of `CN(C)S(=O)(=O)n1c(C(=S)NCO)nc2cc(Cl)c(Cl)cc21`, the melting point lay within 140 to 142 °C.

On to `O=C1CC[C@@H]2c3ccc(Cl)cc3CCC2N1` (stereo partly specified), for which the melting point worked out at 242 °C.

Turning to `CN(C)S(=O)(=O)Nc1cccc(-c2cccc(-c3nc(-c4ccc(C(F)(F)F)cc4)cc(C(F)(F)F)n3)c2)c1`, the melting point was 113 °C.

Consider `O=S1(=O)c2cccc3cccc(c23)N1CCN1CC=C(c2c[nH]c3ccccc23)CC1`, for which the melting point came to 208 °C.

For `COc1ccc(C(=O)NCCCCCCCCCCCCNC(=O)c2ccc(OC)cc2)cc1`, the melting point lay within 169 to 170 °C.

In turn, `C[Si](C)(C)CCC1=C(O)C(=O)c2ccccc2C1=O` came in with a melting point of 98 to 100 °C.

In the case of `CCCCc1ncc(/C=C(\Cc2cccs2)C(=O)O)n1Cc1ccc([N+](=O)[O-])cc1`, the melting point lay within 198 to 200 °C.

`c1coc(C2Nc3ccccc3N3CCc4cccc2c43)c1` (stereo unspecified) displayed a melting point of 141 to 144 °C.

`Cc1cccc(Sc2ccc3c(c2)CC[C@H]2NC(=O)CC[C@]32C)c1` had a melting point of 189 to 191 °C.

`CCCCc1nc(CC(=O)O)c(-c2ccco2)o1`: the melting point fell in the range of 62 to 63 °C.

Turning to `CS(=O)(=O)c1ccc(C(=O)O)c(Cl)c1CC#N`, the melting point is 169 to 172 °C.

In turn, `COc1cc2c(cc1O)CC(C)(C)NC2` gave a melting point of 170 to 173 °C.

Turning to `CCOC(=O)c1cn2c3c(c(-c4cc(C)nc(C)c4)c(F)cc3c1=O)OC[C@@H]2C`, the melting point lay in the range of 267 to 273 °C.

Compound `O=[N+]([O-])N=C1NCCCN1Cc1ccc(Cl)nc1` came in with a melting point of 113 to 117 °C.

In turn, `Cc1cc(C)nc(COc2ccc3c(c2)c(SC(C)(C)C)c(CC(C)(C)C(=O)O)n3Cc2ccc(Cl)cc2)n1` had a melting point of 213 to 215 °C.

The compound `O=C1C(O)=C(CC2CCCC(C(F)(F)F)C2)C(=O)c2ccccc21` (stereo unspecified) returned a melting point of 142 °C.

Take `O=C1NC(c2ccc(Cl)cc2)Nc2ccccc21` (stereo unspecified): the melting point worked out at 190 °C.

In the case of `CC(=O)C12CC(C(C)=O)(C1)C2`, the melting point is 67 to 69 °C.

`O=C(OCCCc1ccc(OCc2ccc(Cl)cc2)cc1)c1cccnc1` came in with a melting point of 109 to 110 °C.

Compound `O=C(O)Cc1c(C(=O)c2ccc(-c3ccco3)cc2)[nH]c2cc(Cl)ccc12` came in with a melting point of 230 to 232 °C.

`Cc1cc(F)ccc1N(C)C(=O)c1cccc(S(=O)(=O)N(C)c2ccc(Br)cc2)c1` gave a melting point of 104 to 105 °C.

Take `COC(=O)c1sccc1S(=O)(=O)N=C(N)NNc1nc(C)cc(C)n1`: the melting point was found to be 213 °C.

In turn, `Oc1ccc(-c2c3ccccc3cc3sc4ccccc4c23)cc1I` gave a melting point of 125 to 128 °C.

The compound `O=C1c2cc(O)ccc2OCC1Cc1ccccc1` (stereo unspecified) came in with a melting point of 140 to 143 °C.

On to `Cc1cc(NC(=O)c2ccccc2C)ccc1C(=O)O`, for which the melting point lay in the range of 231 to 233 °C.

As for `CC1=NC(=NOC(=O)NC2CCC2)SC1(C)C`, the melting point lay within 94 to 96 °C.

`CN1CCN(CC2CCCCN2CC(=O)N2c3ccccc3NC(=O)c3ccccc32)CC1` (stereo unspecified) had a melting point of 200 to 202 °C.

For the origin of these results see a melting point compilation (Tetko et al.; mined from patent text by program, amines drawn as free bases though some values may be those of a salt).
